In PubChem BioAssay (NCI) one finds TGI and GI50 data, which are given here for 14 compounds.

Common to all, as to assay: growth of human tumour cells (NCI), 48 h
The subject of test [1] is BT-549 breast.
For test [2], the system named is MCF7 breast.
Test [3] has as its system MOLT-4 leukemia.
The test system of test [4] is SN12C renal.
In test [5] the test system is T-47D breast.
For test [6], the system named is MDA-MB-435.

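Interpolation was linear, between the two tested concentrations surrounding the appropriate level; five concentrations were tested over 48 hours in 96-well plates. The concentration for 50% growth inhibition is given as GI50. The concentration for full growth arrest is given as TGI.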 A value given as a limit tells only on which side of the number the result lay.

`OCCOCn1nc(-c2ccccc2)nc1-c1cnccn1`: the TGI in test [1], in test [2], in test [3], in test [4] and in test [5] was greater than 100 µM throughout.
For `COC(=O)C(=O)C(C(=O)C(=O)Nc1ccc(Cl)cc1Cl)c1nc2ccc(Cl)cc2[nH]c1=O` (configuration not stated), the TGI in test [1], in test [2], in test [6], in test [3] and in test [4] was greater than 100 µM throughout.
`Cc1cc(CC(O)(C(F)(F)F)C(F)(F)F)cc(CC(O)(C(F)(F)F)C(F)(F)F)n1`: the TGI in test [6] is 8.26 µM; in test [3], 13.2 µM; in test [4] it was 9.25 µM; in test [5], 7.3 µM.
In the case of `COc1cc(OC)cc(-c2n[nH]nc2-c2ccc3c(c2)OCO3)c1`, the GI50 in test [2] was 76.8 nM; in test [3], 572 nM; in test [4] it was 2140 nM. Besides, the TGI in test [2] was greater than 100 µM; in test [3] it was 51.8 µM; in test [4], greater than 100 µM.
On to `COc1ccc(OC)c(-c2cc(-c3ccc(Cl)cc3)nn2-c2ccc(S(N)(=O)=O)cc2)c1`, for which the GI50 in test [1] was 12.4 µM; in test [2], 3900 nM; in test [6], 18.2 µM; in test [3] it was 3520 nM; in test [4], 14500 nM. Besides, the TGI in test [1] was 29.4 µM; in test [2], 26.2 µM; in test [6], 43.9 µM; in test [3] it was greater than 100 µM; in test [4], 28.2 µM.
In the case of `CCCCC#Cc1c(I)n(C2OC(CO[Si](C)(C)C(C)(C)C)C3OC(C)(C)OC32)c(=O)[nH]c1=O` (configuration not stated), the GI50 in test [1] was 14.8 µM; in test [6], 14.6 µM; in test [3], 1770 nM; in test [4], 10200 nM. For the same compound, the TGI in test [1] turned out to be 28.7 µM; in test [6] it was 29.8 µM; in test [3], 4.34 µM; in test [4], 22.2 µM.
Take `CCSc1sc(-c2ccc(C)cc2)nc1[P+](c1ccccc1)(c1ccccc1)c1ccccc1`: the GI50 is 0.295 µM in test [1]; 0.268 µM in test [6]; 391 nM in test [3]; 294 nM in test [4]; 86.3 nM in test [5]. The TGI in test [1] amounted to 1.32 µM; in test [6], 0.801 µM; in test [3] it was 1.87 µM; in test [4], 1.11 µM; in test [5], 1.27 µM.
Regarding `Nc1nc(Cl)cc2c1ncn2C1OC(CO)C(O)C1O` (configuration not stated), the GI50 in test [1] was greater than 100 µM; in test [2] it was greater than 100000 nM; in test [6], greater than 100 µM; in test [3] it was greater than 100000 nM; in test [5] it was greater than 100000 nM. Further, the TGI in test [1], in test [2], in test [6], in test [3] and in test [5] was greater than 100 µM each time.
Consider `CC(=O)O/N=C1\C=Cc2c(no[n+]2[O-])C1=O`, for which the TGI in test [2] was determined as 45.4 µM; in test [6], 36 µM; in test [3] it was 36.6 µM; in test [4], 32.9 µM; in test [5], 57.5 µM.
In the case of `Cc1ccc(NC(=O)C(=O)C2C(=O)C3=C(CC2(C)C)NC2C=CC=CC2S3)c(C)c1` (configuration not stated), the TGI in test [1], in test [2], in test [6], in test [3] and in test [4] was greater than 100 µM throughout.
Take `O=C(CCCCCn1c2ccccc2c2c3c(c4c5ccccc5[nH]c4c21)C(=O)N(O)C3=O)N1CCOCC1`: the GI50 in test [2] is 1410 nM; in test [6] it was 2.25 µM; in test [3] it was 1880 nM; in test [4], 3370 nM; in test [5] it was 2610 nM. In addition, the TGI in test [2] was greater than 100 µM; in test [6], 5.58 µM; in test [3], 5.36 µM; in test [4], greater than 100 µM; in test [5], 7.89 µM.
Take `O=C(O)c1cc(/C=C/c2ccc(O)c(O)c2)ccc1O`: the TGI in test [2] was 51.4 µM; in test [6], greater than 100 µM; in test [3], greater than 100 µM; in test [4] it was greater than 100 µM; in test [5] it was greater than 100 µM.
With `COc1cc2c(cc1OC)[C@@H]1[C@H](C2=O)c2ccc([N+](=O)[O-])cc2C(=O)N1CCCBr`, the GI50 in test [1] is 1.96 µM; in test [2], less than 10 nM; in test [3], less than 18 nM; in test [4] it was 277 nM; in test [5], less than 10 nM. For the same compound, the TGI is 23.9 µM in test [1], 0.284 µM in test [2], 0.934 µM in test [4] and greater than 100 µM in test [5].
As for `COc1ccc(-c2ccc(/C=N/n3cnn(CN4CCN(C)CC4)c3=S)o2)c([N+](=O)[O-])c1`, the GI50 in test [1] was 27.5 µM; in test [2], 28700 nM; in test [6], 30.4 µM; in test [3], 31200 nM; in test [5], 23100 nM. The TGI in test [1] is 91.8 µM; in test [2] it was 97.4 µM; in test [6] it was 63.1 µM; in test [3], greater than 100 µM; in test [5], 54.3 µM.
